In US20080107625A1, “Inhibitors of Hepatitis C Virus” (Bristol-Myers Squibb Company, priority 2006, published 2008):

Tests used:
Format in all cases: biochemical
[1] = molecular target: T1, HCV NS3/4A protease complex, H77 strain (Hepatitis C virus genotype 1a, UniProt P27958, C1454S/C1711G); assay: FRET peptide assay to monitor HCV NS3/4A proteolytic activity (H77 strain); settings: H77 strain (1a genotype)
T1 construct: recombinant HCV NS3/4A protease complex (amino acids 1027 to 1711) for these strains; His-tag (inferred from pET21b vector and Ni-NTA purification); made in house; host or cells: Escherichia coli BL21 (DE3), pET21b
T1 sequence (P27958 1027-1711 C1454S/C1711G, one chain of several): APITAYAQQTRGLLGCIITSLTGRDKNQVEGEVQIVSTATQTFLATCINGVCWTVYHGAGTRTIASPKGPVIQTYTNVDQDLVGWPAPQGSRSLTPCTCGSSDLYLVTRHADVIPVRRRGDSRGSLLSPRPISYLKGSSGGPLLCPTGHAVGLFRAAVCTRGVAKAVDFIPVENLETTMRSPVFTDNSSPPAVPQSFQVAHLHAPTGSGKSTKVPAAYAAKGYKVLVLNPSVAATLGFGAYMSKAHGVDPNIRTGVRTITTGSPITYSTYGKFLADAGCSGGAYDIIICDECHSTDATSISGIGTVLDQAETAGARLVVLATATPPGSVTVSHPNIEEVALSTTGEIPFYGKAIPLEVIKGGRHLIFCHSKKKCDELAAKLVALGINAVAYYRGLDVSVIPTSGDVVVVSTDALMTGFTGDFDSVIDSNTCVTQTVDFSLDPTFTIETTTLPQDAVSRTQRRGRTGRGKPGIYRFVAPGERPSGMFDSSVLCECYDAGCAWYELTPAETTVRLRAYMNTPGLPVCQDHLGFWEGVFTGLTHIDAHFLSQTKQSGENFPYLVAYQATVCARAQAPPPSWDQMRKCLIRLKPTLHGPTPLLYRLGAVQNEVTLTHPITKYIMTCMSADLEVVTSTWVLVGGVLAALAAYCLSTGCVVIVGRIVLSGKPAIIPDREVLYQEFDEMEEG
Text: (§1) HCV NS3 protease complexes, derived from the BMS strain, H77 strain or J4L6S strain, were generated, as described below. These purified recombinant proteins were generated for use in a homogeneous assay (see below) to provide an indication of how effective compounds of the present disclosure would be in inhibiting HCV NS3 proteolytic activity.
(§2) The H77 and J4L6S strains were used for production of recombinant NS3/4A protease complexes. DNA encoding the recombinant HCV NS3/4A protease complex (amino acids 1027 to 1711) for these strains were manipulated as described by P. Gallinari et al. (see Gallinari P, Paolini C, Brennan D, Nardi C, Steinkuhler C, De Francesco R. Biochemistry. 38(17):5620-32, (1999)). Briefly, a three-lysine solubilizing tail was added at the 3′-end of the NS4A coding region. The cysteine in the P1 position of the NS4A-NS4B cleavage site (amino acid 1711) was changed to a glycine to avoid the proteolytic cleavage of the lysine tag. Furthermore, a cysteine to serine mutation was introduced by PCR at amino acid position 1454 to prevent the autolytic cleavage in the NS3 helicase domain. […]

[2] = molecular target: T2, HCV NS3/4A protease complex, J4L6S strain (Hepatitis C virus genotype 1b, UniProt O92972, C1454S/C1711G); assay: FRET peptide assay to monitor HCV NS3/4A proteolytic activity (J4L6S strain); settings: J4L6S strain (1b genotype)
T2 construct: recombinant HCV NS3/4A protease complex (amino acids 1027 to 1711) for these strains; His-tag (inferred from pET21b vector and Ni-NTA purification); made in house; host or cells: Escherichia coli BL21 (DE3), pET21b
T2 sequence (O92972 1027-1711 C1454S/C1711G, one chain of several): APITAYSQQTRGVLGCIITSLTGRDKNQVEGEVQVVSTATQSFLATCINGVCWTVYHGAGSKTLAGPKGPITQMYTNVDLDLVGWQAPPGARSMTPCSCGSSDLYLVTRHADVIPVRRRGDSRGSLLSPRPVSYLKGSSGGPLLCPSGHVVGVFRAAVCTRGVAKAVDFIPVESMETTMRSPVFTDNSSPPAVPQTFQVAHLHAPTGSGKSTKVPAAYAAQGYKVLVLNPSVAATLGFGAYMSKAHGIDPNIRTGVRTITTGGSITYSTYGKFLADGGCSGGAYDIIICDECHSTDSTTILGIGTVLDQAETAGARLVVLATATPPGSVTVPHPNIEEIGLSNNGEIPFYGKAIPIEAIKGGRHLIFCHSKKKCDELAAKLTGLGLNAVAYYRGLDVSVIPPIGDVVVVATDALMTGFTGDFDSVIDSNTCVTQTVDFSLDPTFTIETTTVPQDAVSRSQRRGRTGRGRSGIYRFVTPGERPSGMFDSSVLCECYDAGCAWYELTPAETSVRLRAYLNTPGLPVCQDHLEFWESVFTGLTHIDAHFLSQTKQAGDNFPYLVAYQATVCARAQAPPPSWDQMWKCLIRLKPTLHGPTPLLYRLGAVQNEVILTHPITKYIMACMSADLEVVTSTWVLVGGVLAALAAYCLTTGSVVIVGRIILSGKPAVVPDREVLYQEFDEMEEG
Text: as §1, §2

[3] = molecular target: T3, human neutrophil elastase (HNE) (Homo sapiens, UniProt P08246); assay: Specificity assay, neutrophil elastase; settings: read-out: HLE activity in the specificity assay (IC50)
T3 construct: purchased Sigma or EMDbiosciences
T3 sequence (P08246 30-267): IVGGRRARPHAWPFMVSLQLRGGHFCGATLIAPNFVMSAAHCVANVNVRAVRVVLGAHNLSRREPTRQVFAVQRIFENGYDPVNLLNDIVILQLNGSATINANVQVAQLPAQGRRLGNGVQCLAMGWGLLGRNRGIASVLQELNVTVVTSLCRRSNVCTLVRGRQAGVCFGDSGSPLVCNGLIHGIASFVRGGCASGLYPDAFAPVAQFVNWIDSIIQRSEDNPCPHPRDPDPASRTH
Procedure: The specificities of compounds of the present disclosure were determined against a variety of serine proteases: human neutrophil elastase (HNE), porcine pancreatic elastase (PPE) and human pancreatic chymotrypsin and one cysteine protease: human liver cathepsin B. In all cases, a 96-well plate format protocol using colorimetric p-nitroaniline (pNA) substrate or fluorometric Amino-Methyl-Coumarin (AMC) substrate, specific for each enzyme was used as described previously (PCT Patent Application No. WO 00/09543) with some modifications. All enzymes were purchased from Sigma or EMDbiosciences while the substrates were from Bachem.
Each pNA assay included a 2 h enzyme-inhibitor pre-incubation at room temperature followed by addition of substrate and hydrolysis to ˜15% conversion as measured on a Spectramax Pro microplate reader. The cathepsin B assay was initiated by adding substrate to a 10 min enzyme-inhibitor pre-incubation at room temperature, and the assay plate measured immediately using the Cytofluor Series 4000. Compound concentrations varied from 100 to 0.4 μM depending on their potency.
50 mM Tris(hydroxymethyl)aminomethane hydrochloride (Tris-HCl) pH 8, 0.5 M Sodium Sulfate (Na2SO4), 50 mM NaCl, 0.1 mM EDTA, 3% DMSO, 0.01% Tween-20 with: […]
The percentage of inhibition was calculated using the formula: [1−((UVinh−UVblank)/(UVctl−UVblank))]×100 […]

For `CC(C)(C)OC(=O)N[C@H]1CN(C2CC2)CCC/C=C\C2C[C@@]2(C(=O)NS(=O)(=O)C2CC2)NC(=O)[C@@H]2C[C@@H](Oc3ccccn3)CN2C1=O` (stereo partly drawn) [Compound 1], the IC50 [1] was 18 nM, the IC50 [2] was 12 nM and the IC50 [3] was greater than 100 µM.
